# Results reported in patent US20200002323A1, “COMPOUNDS” (GLAXOSMITHKLINE INTELLECTUAL PROPERTY DEVELOPMENT LIMITED, priority 2017, published 2020).
# Target: T1, recombinant full length LRRK2 protein over-expressed in SH-SY5Y cells (Homo sapiens, UniProt Q5S007)
# T1 construct: engineered to over-express recombinant full length LRRK2 protein; host or cells: SH-SY5Y human neuroblastoma cells transduced with BacMam LRRK2 virus
# Assay: Recombinant cellular LRRK2 AlphaScreen assay (LRRK2 Ser935 phosphorylation)
# Type: cell-based
# Details: human neuroblastoma SH-SY5Y cells over-expressing recombinant full length LRRK2, 60 minutes compound incubation, read-out: pIC50 in the recombinant cellular LRRK2 AlphaScreen assay (converted)
# Excerpt: b. Recombinant Cellular LRRK2 AlphaScreen Assay
# To determine the activity of compounds against LRRK2 kinase activity in cells, the observed LRRK2 kinase-dependent modulation of LRRK2 Ser 935 phosphorylation (Dzamko et al., 2010, Biochem. J. 430: 405-413) was utilized to develop a quantitative 384 well plate-based immunoassay of LRRK2 Ser935 phosphorylation in the human neuroblastoma cell line SH-SY5Y, engineered to over-express recombinant full length LRRK2 protein.
# A BacMam virus expressing full length recombinant LRRK2 was purchased from Invitrogen and amplified by inoculation of SF-9 cells at MOI 0.3 for 4-5 days in Sf-900 III SFM medium supplemented with 3% fetal bovine serum. Infected cell cultures were then centrifuged at 2000 g for 20 minutes, viral supernatant titer determined by anti-gp64 plaque assay and stored at 4° C.
# Affinity-purified anti-phospho LRRK2 Ser935 sheep polyclonal antibody (Dzamko et al., 2010, Biochem. J. 430: 405-413) was biotinylated by standard methods (PerkinElmer). Anti-LRRK2 rabbit polyclonal antibody was purchased from Novus Biologicals. AlphaScreen Protein A IgG Kit (including acceptor and donor beads) was purchased from Perkin Elmer. […]
# Serial dilutions of test compounds were prepared in Opti-MEM reduced serum media (Invitrogen) and 5.6 ul transferred from compound plate to cell assay plate to achieve a top final assay concentration of 10 uM. […] 10 ul of antibody/acceptor bead mix [(1/1000 biotinylated-pS935 LRRK2 antibody, 1/1000 total-LRRK2 antibody, 1/100 Acceptor beads in AlphaScreen detection buffer (25 mM Hepes (pH 7.4), 0.5% Triton X-100, 1 mg/ml Dextran 500 and 0.1% BSA)] was then added to each well and plates incubated for 2 hours at ambient temperature in the dark. 10 μl of donor beads solution (1/33.3 donor beads in AlphaScreen detection buffer) was then added to each well. Following incubation for a further 2 hours at ambient temperature in the dark, plates were read on an EnVision™ plate reader at emission 520-620 nm with excitation 680 nm. […]
# T1 sequence (Q5S007 whole entry): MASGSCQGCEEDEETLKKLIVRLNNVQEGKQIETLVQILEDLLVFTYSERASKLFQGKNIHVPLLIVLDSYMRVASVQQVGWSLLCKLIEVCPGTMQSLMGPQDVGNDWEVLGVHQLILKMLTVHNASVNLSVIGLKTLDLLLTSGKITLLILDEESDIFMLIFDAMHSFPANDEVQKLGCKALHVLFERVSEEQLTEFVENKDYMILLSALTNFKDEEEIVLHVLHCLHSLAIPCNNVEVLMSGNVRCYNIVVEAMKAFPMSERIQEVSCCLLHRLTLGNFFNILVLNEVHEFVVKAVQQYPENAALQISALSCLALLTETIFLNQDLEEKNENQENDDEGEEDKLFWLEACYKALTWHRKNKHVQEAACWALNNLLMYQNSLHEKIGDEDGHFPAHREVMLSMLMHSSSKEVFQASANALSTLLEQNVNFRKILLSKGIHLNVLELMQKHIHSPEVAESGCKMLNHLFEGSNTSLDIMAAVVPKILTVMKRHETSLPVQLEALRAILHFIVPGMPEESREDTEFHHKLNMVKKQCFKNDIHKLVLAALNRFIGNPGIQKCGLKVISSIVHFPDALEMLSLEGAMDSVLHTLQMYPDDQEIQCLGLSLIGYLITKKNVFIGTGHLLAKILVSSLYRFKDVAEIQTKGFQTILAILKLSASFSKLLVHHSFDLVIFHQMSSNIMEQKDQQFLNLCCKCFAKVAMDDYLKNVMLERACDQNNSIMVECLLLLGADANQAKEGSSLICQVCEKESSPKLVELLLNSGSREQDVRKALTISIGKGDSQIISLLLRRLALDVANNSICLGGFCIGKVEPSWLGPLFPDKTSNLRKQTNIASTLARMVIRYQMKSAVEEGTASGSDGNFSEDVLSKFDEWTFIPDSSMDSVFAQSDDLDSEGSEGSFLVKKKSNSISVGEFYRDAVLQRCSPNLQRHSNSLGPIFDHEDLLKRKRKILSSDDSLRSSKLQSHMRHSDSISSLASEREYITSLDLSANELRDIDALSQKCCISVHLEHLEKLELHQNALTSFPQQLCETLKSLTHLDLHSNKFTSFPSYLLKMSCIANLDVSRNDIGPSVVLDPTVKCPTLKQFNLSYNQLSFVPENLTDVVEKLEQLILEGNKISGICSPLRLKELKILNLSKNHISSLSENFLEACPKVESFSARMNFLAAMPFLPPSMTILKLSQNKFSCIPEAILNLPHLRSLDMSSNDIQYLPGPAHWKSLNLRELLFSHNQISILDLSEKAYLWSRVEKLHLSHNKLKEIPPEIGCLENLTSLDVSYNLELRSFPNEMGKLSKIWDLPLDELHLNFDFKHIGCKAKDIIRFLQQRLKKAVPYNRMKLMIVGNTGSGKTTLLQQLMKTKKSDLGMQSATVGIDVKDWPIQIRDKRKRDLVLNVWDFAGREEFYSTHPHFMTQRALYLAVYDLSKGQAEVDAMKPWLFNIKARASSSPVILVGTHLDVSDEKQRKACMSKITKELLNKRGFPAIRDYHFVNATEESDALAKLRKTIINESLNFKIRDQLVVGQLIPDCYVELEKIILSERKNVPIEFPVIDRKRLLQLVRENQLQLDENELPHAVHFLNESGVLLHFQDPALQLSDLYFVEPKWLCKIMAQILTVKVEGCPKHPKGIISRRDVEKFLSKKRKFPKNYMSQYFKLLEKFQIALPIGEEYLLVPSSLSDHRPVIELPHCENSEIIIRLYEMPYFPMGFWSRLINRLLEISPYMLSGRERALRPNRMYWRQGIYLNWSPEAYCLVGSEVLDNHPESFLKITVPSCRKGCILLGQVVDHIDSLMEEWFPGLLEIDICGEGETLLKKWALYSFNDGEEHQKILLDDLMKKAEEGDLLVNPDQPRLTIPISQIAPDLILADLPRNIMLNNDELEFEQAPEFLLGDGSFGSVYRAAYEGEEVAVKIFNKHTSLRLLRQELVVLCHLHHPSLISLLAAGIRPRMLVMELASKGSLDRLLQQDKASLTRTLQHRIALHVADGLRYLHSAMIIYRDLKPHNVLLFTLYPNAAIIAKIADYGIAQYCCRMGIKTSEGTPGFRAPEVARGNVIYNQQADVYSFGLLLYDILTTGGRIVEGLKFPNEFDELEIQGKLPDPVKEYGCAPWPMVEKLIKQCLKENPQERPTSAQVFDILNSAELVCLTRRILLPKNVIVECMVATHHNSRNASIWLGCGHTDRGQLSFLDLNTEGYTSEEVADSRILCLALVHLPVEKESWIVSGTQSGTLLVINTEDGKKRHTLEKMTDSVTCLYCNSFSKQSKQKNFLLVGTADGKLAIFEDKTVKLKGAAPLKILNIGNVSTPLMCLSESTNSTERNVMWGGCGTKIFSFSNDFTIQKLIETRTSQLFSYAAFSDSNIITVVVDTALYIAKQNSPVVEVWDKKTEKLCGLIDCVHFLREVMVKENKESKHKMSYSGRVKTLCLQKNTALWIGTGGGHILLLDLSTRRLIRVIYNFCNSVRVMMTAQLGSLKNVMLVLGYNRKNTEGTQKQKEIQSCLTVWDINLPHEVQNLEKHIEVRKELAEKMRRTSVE
row,IC50 [nM],SMILES
1,5.01,"COc1nc(N2CCOCC2)cc(-n2ncc3cc(C)c(C4CCN(CCO)CC4F)cc32)n1 (single isomer, unassigned) [Example E1, 2-(3-fluoro-4-(1-(2-methoxy-6-morpholinopyrimidin-4-yl)-5-methyl-1H-indazol-6-yl)piperidin-1-yl)ethanol]"
2,6.31,"Cc1nc(N2CCO[C@@H](CO)C2)cc(-n2ncc3cc(C)c(C4CCN(CC(C)O)CC4F)cc32)n1 (single isomer, unassigned) [Example E29]"
3,2,"COc1nc(N2CC(O)C2)cc(-n2ncc3cc(C)c(C4CCN(CCS(C)(=O)=O)CC4)cc32)n1 [Example E42, 1-(2-methoxy-6-(5-methyl-6-(1-(2-(methylsulfonyl)ethyl)piperidin-4-yl)-1H-indazol-1-yl)pyrimidin-4-yl)azetidin-3-ol]"
